Data on 40 molecules can be found in the C3SDB collision cross section collection.

Where “and” joins values, the source holds several entries; their conditions need not be identical. Equal entries are not always repeated.

For series [1] the following is noted: instrument: DT, single field, calibrated with ESI Low Concentration Tuning Mix (Agilent).
The conditions of series [2]: instrument: TW, calibrated with polyalanine and drug standards.

Consider `NC1(C(=O)[O-])CC1` [1-AMINOCYCLOPROPANECARBOXYLATE], for which the “collision cross section (N2)” value in series [1] ([M-H]-) was determined as 135.1 Å².
For `Cn1cnc(C[C@H](N)C(=O)O)c1` [1-METHYL-L-HISTIDINE], the “collision cross section (N2)” value in series [1] ([M+H]+) came out at 133.4 Å²; in series [1] ([M+Na]+), 138.4 Å².
On to `NCC(N)C(=O)O` (stereo not given) [2,3-DIAMINOPROPIONATE], for which the “collision cross section (N2)” value came out at 138.1 Å² in series [1] ([M+H]+) and 118.2 Å² in series [1] ([M-H]-).
Turning to `O=C(O)c1cccc(O)c1[O-]` [2,3-DIHYDROXYBENZOATE], in series [1] ([M-H]-), the “collision cross section (N2)” value turned out to be 120.6 Å².
`O=c1[nH]c(=O)c2nccnc2[nH]1` [2,4-DIHYDROXYPTERIDINE]: the figures for the “collision cross section (N2)” value in series [1] ([M+H]+), in series [1] ([M+Na]+) and in series [1] ([M-H]-) were 132.4 Å², 143.8 Å² and 125.3 Å², respectively.
Regarding `O=C(O)c1cc(O)ccc1[O-]` [2,5-DIHYDROXYBENZOATE], the “collision cross section (N2)” value in series [1] ([M-H]-) was 124.6 Å².
Take `O=C(O)Cc1ccccc1O` [2-HYDROXYPHENYLACETATE]: in series [1] ([M-H]-), the “collision cross section (N2)” value amounted to 130.1 Å².
Consider `O=C(O)c1ccc2ccccc2n1` [2-QUINOLINECARBOXYLATE], for which the “collision cross section (N2)” value in series [1] ([M+H]+) stood at 132 Å².
On to `O=C(O)Cc1ccc(O)c(O)c1` [3,4-DIHYDROXYPHENYLACETATE], for which the “collision cross section (N2)” value in series [1] ([M+Na-2H]-) is listed as 139.9 Å².
On to `OCC(O)c1ccc(O)c(O)c1` (stereo not given) [3,4-DIHYDROXYPHENYLGLYCOL], for which the “collision cross section (N2)” value in series [1] ([M-H2O-H]-) is given as 127.5 Å².
With `N[C@@H](Cc1cc(I)c(O)c(I)c1)C(=O)O` [3,5-DIIODO-L-TYROSINE], the “collision cross section (N2)” value in series [1] ([M+H]+) is reported as 171.1 Å²; in series [1] ([M+Na]+) it was 165.2 Å²; in series [1] ([M-H]-) it was 159.3 Å².
Regarding `Nc1cc(C(=O)O)ccc1[O-]` [3-AMINO-4-HYDROXYBENZOATE], the “collision cross section (N2)” value in series [1] ([M+H]+) is recorded as 139.6 Å²; in series [1] ([M-H]-), 125.7 Å².
For the molecule `CC(C)(COP(=O)(O)OP(=O)(O)OC[C@H]1O[C@@H](n2cnc3c(N)ncnc32)[C@H](O)[C@@H]1OP(=O)(O)O)[C@@H](O)C(=O)NCCC(=O)NCCSC(=O)C[C@@](C)(O)CC(=O)O` [3-HYDROXY-3-METHYLGLUTARYL-COA], the “collision cross section (N2)” value in series [1] ([M+H]+) is given as 265.4 Å²; in series [1] ([M+Na-2H]-) it was 267.3 Å²; in series [1] ([M+Na]+), 266.2 Å²; in series [1] ([M-H]-) it was 261.9 Å².
Take `Nc1c(O)cccc1C(=O)O` [3-HYDROXYANTHRANILATE]: the “collision cross section (N2)” value in series [1] ([M+H]+) was determined as 131.2 Å²; in series [1] ([M-H]-) it was 127.8 Å².
For `COc1cc(CCN)ccc1O` [3-METHOXYTYRAMINE], in series [1] ([M+H]+), the “collision cross section (N2)” value was found to be 146.7 Å².
For `CC(C)=CC(=O)SCCNC(=O)CCNC(=O)C(O)C(C)(C)COP(=O)(O)OP(=O)(O)OC[C@H]1O[C@@H](n2cnc3c(N)ncnc32)[C@H](O)[C@@H]1OP(=O)(O)O` (stereo not given in full) [3-METHYLCROTONYL-COA], the entries for the “collision cross section (N2)” value in series [1] ([M+H]+), in series [1] ([M+Na-2H]-) and in series [1] ([M-H]-) were 256.1 Å², 266.9 Å² and 256.7 Å², respectively.
As for `N[C@@H](Cc1ccc(O)c([N+](=O)[O-])c1)C(=O)O` [3-NITRO-L-TYROSINE], the “collision cross section (N2)” value in series [1] ([M+H]+) turned out to be 158.2 Å²; in series [1] ([M+Na-2H]-) it was 147.7 Å²; in series [1] ([M+Na]+), 154.5 Å²; in series [1] ([M-H]-), 148.9 Å².
In the case of `O=C(O)C(O)COP(=O)(O)O` (stereo not given) [3-PHOSPHOGLYCERATE], the “collision cross section (N2)” value in series [1] ([M+H]+) was 136.1 Å²; in series [1] ([M+Na-2H]-), 133 Å² and 141.6 Å²; in series [1] ([M+Na]+) it was 139.4 Å²; in series [1] ([M-H]-) it was 124.4 Å².
As to `CC(=O)NCCCC(=O)O` [4-ACETAMIDOBUTANOATE], the “collision cross section (N2)” value in series [1] ([M+Na]+) is given as 135.7 Å²; in series [1] ([M-H]-), 130.8 Å².
`NC(N)=NCCCC(=O)O` [4-GUANIDINOBUTANOATE]: the “collision cross section (N2)” value in series [1] ([M+H]+) turned out to be 130 Å².
Regarding `O=Cc1ccc(O)cc1` [4-HYDROXYBENZALDEHYDE], the “collision cross section (N2)” value in series [1] ([M-H]-) came out at 118.2 Å².
In the case of `O=C(O)c1ccc([O-])cc1` [4-HYDROXYBENZOATE], the “collision cross section (N2)” value in series [1] ([M-H]-) is recorded as 121.2 Å².
`NCC(=O)CCC(=O)O` [5-AMINOLEVULINATE]: the “collision cross section (N2)” value in series [1] ([M+H]+) turned out to be 130.7 Å².
As for `NCCc1cc(O)c(O)cc1O` [6-HYDROXYDOPAMINE], the “collision cross section (N2)” value in series [1] ([M+H]+) is recorded as 143 Å².
Same read-out and setting: then `O=C(O)c1ccc(=O)[nH]c1` [6-HYDROXYNICOTINATE], with 128.9 Å².
As for `CC[C@H]1OC(=O)C[C@@H](O)[C@H](C)[C@@H](O[C@@H]2O[C@H](C)[C@@H](O)[C@H](N(C)C)[C@H]2O)[C@@H](CCN2C[C@H](C)C[C@H](C)C2)C[C@@H](C)C(=O)/C=C/C(C)=C/[C@@H]1CO[C@@H]1O[C@H](C)[C@@H](O)[C@@H](OC)[C@H]1OC` [TILMICOSIN], in series [2] ([M+H]+), the “collision cross section (N2)” value stood at 310.2 Å².
Same read-out and setting: then `Cc1c(Cl)cccc1Nc1ccccc1C(=O)O` [TOLFENAMIC ACID], with 155.6 Å².
Still for that read-out and setting: the result for `Cc1cccc(N(C)C(=S)Oc2ccc3ccccc3c2)c1` [TOLNAFTATE] reads 173.6 Å².
For the molecule `CC1(C)O[C@@H]2[C@@H](CO[C@@]3(COS(N)(=O)=O)OC(C)(C)O[C@@H]23)O1` [TOPIRAMATE], the “collision cross section (N2)” value in series [2] ([M+Na]+) is reported as 170.1 Å².
In the case of `C[C@]12C=CC(=O)C=C1CC[C@H]1[C@@H]3C[C@@H](O)[C@](O)(C(=O)CO)[C@@]3(C)C[C@H](O)[C@@]12F` [TRIAMCINOLONE], the “collision cross section (N2)” value in series [2] ([M+H]+) is 186.8 Å².
Still for that read-out and setting: then `COc1cc(C(=O)N2CCOCC2)cc(OC)c1OC` [TRIMETOZINE], with 164.5 Å²; and `CCN(Cc1ccncc1)C(=O)C(CO)c1ccccc1` (stereo not given) [TROPICAMIDE], with 169.5 Å²; and `CC[C@H]1OC(=O)C[C@@H](O)[C@H](C)[C@@H](O[C@@H]2O[C@H](C)[C@@H](O[C@H]3C[C@@](C)(O)[C@@H](O)[C@H](C)O3)[C@H](N(C)C)[C@H]2O)[C@@H](CC=O)C[C@@H](C)C(=O)/C=C/C(C)=C/[C@@H]1CO[C@@H]1O[C@H](C)[C@@H](O)[C@@H](OC)[C@H]1OC` [TYLOSIN], with 307.8 Å².
For the molecule `COc1ccc(C(=O)CC(=O)O)c2c1C=CC(C)(C)O2` [URSINOIC ACID], the “collision cross section (N2)” value in series [2] ([M+H]+) was 159.4 Å².
As for `COc1ccc(C(CN(C)C)C2(O)CCCCC2)cc1` (stereo not given) [VENLAFAXINE], in series [2] ([M+H]+), the “collision cross section (N2)” value was 169.9 Å².
Regarding `CC(=O)CC(c1ccccc1)c1c(O)c2ccccc2oc1=O` (stereo not given) [WARFARIN], in series [2] ([M+H]+), the “collision cross section (N2)” value was 165.9 Å².
`Nc1nc(=O)c2[nH]c(=O)cnc2[nH]1` [XANTHOPTERIN]: in series [2] ([M+H]+), the “collision cross section (N2)” value was found to be 131.1 Å².
The same measure, in the same setting: then `O=C(O)c1cc(=O)c2cccc(O)c2[nH]1` [XANTHURENIC ACID], with 137.7 Å²; and `O=C(O)[C@@H]1[C@H]2C[C@H]3c4[nH]c5ccccc5c4CCN3C[C@@H]2CC[C@@H]1O` [YOHIMBIC ACID], with 181.7 Å².
With `CC(C)CC1C(=O)N2CCCC2C2(O)OC(NC(=O)C3C=C4c5cccc6[nH]cc(c56)CC4N(C)C3)(C(C)C)C(=O)N12` (stereo not drawn) [alpha-ERGOCRYPTINE], the “collision cross section (N2)” value in series [2] ([M+H]+) was 236.1 Å².
